According to ChEMBL document CHEMBL1122256, “Novel tetracyclic spiropiperidines. 3. 1-arylspiro[indoline-3,4'-piperidine]s as potential antidepressants” (J Med Chem, 1983):

What was measured:
Mus musculus [1] = experiment: Inhibition of tetrabenazine ptosis in mice following i.p. administration.; assay type: functional; settings: ip
Rattus norvegicus [2] = experiment: Potentiation of head twitching induced by 5-HTP in pargyline-pretreated rats following i.p. administration.; assay type: functional; settings: ip
Mus musculus [3] = experiment: Antidepressant activity by tetrabenazine ptosis prevention in mice after intraperitoneal administration; settings: ip
Mus musculus [4] = experiment: Antidepressant activity by tetrabenazine ptosis prevention in mice after oral administration
Mus musculus [5] = experiment: Antidepressant activity by tetrabenazine ptosis prevention in mice after peroral administration; assay type: functional; settings: po
Rattus norvegicus [6] = experiment: In vivo antidepressant activity measured by potentiation of head twitching induced by 5-HTP in pargyline-pretreated rats after intraperitoneal administration; assay type: functional; settings: ip
Mus musculus [7] = experiment: In vivo antidepressant activity measured by yohimbine toxicity potentiation in mouse after intraperitoneal administration; assay type: functional; settings: ip
Mus musculus [8] = experiment: In vivo antidepressant activity by tetrabenazine ptosis prevention in mice after oral administration; assay type: functional
Mus musculus [9] = experiment: In vivo antidepressant activity by tetrabenazine ptosis prevention in mice after intraperitoneal administration; assay type: functional; settings: ip
Rattus norvegicus [10] = experiment: In vivo antidepressant activity against muricide in rat after intraperitoneal administration; assay type: functional; settings: ip
Mus musculus [11] = experiment: Antidepressant activity by tetrabenazine ptosis prevention in mice after oral administration; assay type: functional
Rattus norvegicus [12] = experiment: Antidepressant activity measured by potentiation of head twitching induced by 5-HTP in pargyline-pretreated rats after intraperitoneal administered; assay type: functional; settings: ip
Mus musculus [13] = experiment: In vivo antidepressant activity by tetrabenazine ptosis prevention in mouse after intraperitoneal administration; settings: ip
Rattus norvegicus [14] = organism: Rattus norvegicus; experiment: In vitro inhibition of neuronal uptake against norepinephrine in rat whole brain; assay type: functional
Mus musculus [15] = experiment: Antidepressant activity by tetrabenazine ptosis prevention in mouse after oral administration; assay type: functional
[16] = tested on: Monoamine oxidase (Rattus norvegicus); experiment: In vitro inhibition of MAO against mitochondrial preparation in rat whole brain
Rattus norvegicus [17] = organism: Rattus norvegicus; experiment: In vitro inhibition of neuronal uptake against dopamine in rat striatum; assay type: functional
Rattus norvegicus [18] = organism: Rattus norvegicus; experiment: In vitro inhibition of neuronal uptake against serotonin in rat whole brain; assay type: functional
Mus musculus [19] = experiment: Antidepressant activity by tetrabenazine ptosis prevention in mice after intraperitoneal administration; d = All animals died after tetrabenazine dosing; assay type: functional, organism-based

Row | SMILES | ED50 (Mus musculus [1]) [mg/kg] | ED50 (Rattus norvegicus [2]) [mg/kg] | also measured
1 | CN1CCC2(CC1)CN(c1ccccc1)c1ccccc12 | > 20 | > 10 | 
2 | CN1CCC2(CC1)CN(c1cccc(C(F)(F)F)c1)c1ccccc12 | > 20 | > 10 | 
3 | CN1CCC2(CC1)CN(c1ccc(C(F)(F)F)cc1)c1ccccc12 | > 20 | 7.8 | ED50 (Mus musculus [3]): > 20 mg/kg
4 | c1ccc(C2OC3(CCNCC3)c3ccccc32)cc1 (configuration not stated) | 0.5 | 1.9 | ED50 (Mus musculus [4]): 1 mg/kg
5 | Fc1ccc(N2CC3(CCNCC3)c3ccccc32)cc1.O=C(O)/C=C\C(=O)O | > 20 | > 10 | ED50 (Mus musculus [3]): > 20 mg/kg
6 | CN1CCC2(CC1)CN(c1ccccc1[N+](=O)[O-])c1ccccc12 |  | > 10 | ED50 (Mus musculus [5]): 8.4 mg/kg; ED50 (Mus musculus [3]): 4 mg/kg
7 | CN1CCC2(CC1)CN(c1ccccc1N)c1cc(Cl)ccc12.Cl.Cl | > 20 | > 10 | 
8 | Cl.Cl.Nc1ccccc1N1CC2(CCNCC2)c2ccc(Cl)cc21 | > 20 | > 10 | 
9 | Br.CN1CCC2(CC1)CN(c1ccccn1)c1ccccc12 | > 20 | > 10 | 
10 | CN1CCC2(CC1)CN(c1ccccc1N)c1ccccc12.Cl | 4 | > 10 | 
11 | CN1CCC2(CC1)CN(c1ccccc1C(F)(F)F)c1cc(Cl)ccc12.O=C(O)/C=C\C(=O)O | > 8 | > 10 | 
12 | CN1CCC2(CC1)CN(c1ccccc1Cl)c1cc(Cl)ccc12.O=C(O)/C=C\C(=O)O | 2.6 | > 10 | 
13 | Fc1ccccc1N1CC2(CCNCC2)c2ccc(Cl)cc21.O=C(O)/C=C\C(=O)O | > 8 | > 10 | 
14 | CN1CCC2(CC1)CN(c1ccc(Cl)cc1)c1ccccc12 | > 20 | > 10 | 
15 | CN(C)CCC=C1c2ccccc2CCc2ccccc21 [AMITRIPTYLINE] |  |  | ED50 (Rattus norvegicus [6]): 7.1 mg/kg; ED50 (Mus musculus [7]): 8 mg/kg; ED50 (Mus musculus [8]): 1.94 mg/kg; ED50 (Mus musculus [9]): 1.5 mg/kg; ED50 (Rattus norvegicus [10]): 22.6 mg/kg
16 | CN1CCC2(CC1)CN(c1ccccc1Cl)c1ccccc12.O=C(O)/C=C\C(=O)O |  | > 10 | ED50 (Mus musculus [11]): 3.2 mg/kg
17 | Cl.Nc1ccccc1N1CC2(CCNCC2)c2ccccc21 | > 20 | > 10 | 
18 | Br.CN1CCC2(CC1)CN(c1ccc(F)cc1)c1ccccc12 | > 20 |  | ED50 (Rattus norvegicus [12]): > 10 mg/kg; ED50 (Mus musculus [3]): > 20 mg/kg
19 | CNCCCN1c2ccccc2CCc2ccccc21 [DESIPRAMINE] | 0.8 | > 10 | ED50 (Mus musculus [4]): 1.6 mg/kg
20 | Clc1ccccc1N1CC2(CCNCC2)c2ccccc21.O=C(O)/C=C\C(=O)O |  |  | ED50 (Rattus norvegicus [6]): 4.7 mg/kg; ED50 (Mus musculus [13]): 1.2 mg/kg; IC50 (Rattus norvegicus [14]): 6.5 µM; ED50 (Mus musculus [15]): 0.37 mg/kg; ED50 (Mus musculus [7]): 1.6 mg/kg; IC50 [16]: 160 µM; IC50 (Rattus norvegicus [17]): 8 µM; IC50 (Rattus norvegicus [18]): 1.7 µM; ED50 (Rattus norvegicus [10]): 4.9 mg/kg
21 | Cl.O=[N+]([O-])c1ccccc1N1CC2(CCNCC2)c2ccccc21 |  | > 10 | ED50 (Mus musculus [19]): All animals died
22 | CN1CCC2(CC1)CN(c1ccccc1F)c1ccccc12.O=C(O)/C=C\C(=O)O | 15.2 | > 10 | 
23 | CN1CCC2(CC1)CN(c1ccccc1F)c1cc(Cl)ccc12.O=C(O)/C=C\C(=O)O | 11 | > 10 | 
